Reference: ChEMBL document CHEMBL3885881, “DrugMatrix”

Species: Rattus norvegicus
Assay: DrugMatrix - Regimen: Daily Repeat
Format: toxicity, organism-based, Sprague-Dawley
Parameters: regimen Daily Repeat, gender Male, age 6-8 weeks
Conditions: in vivo, po, 620 mg/kg, route oral GAVAGE, dose level High, vehicle 100 % WATER; for BASOPHIL / EOSINOPHIL / ERYTHROCYTE COUNT / HEMATOCRIT / HEMOGLOBIN / LEUKOCYTE COUNT / LYMPHOCYTE / MEAN CORPUSCULAR HEMOGLOBIN / MEAN CORPUSCULAR HEMOGLOBIN CONCENTRATION / MEAN CORPUSCULAR VOLUME / MONOCYTE / NEUTROPHIL / PLATELET COUNT: tissue Blood; for ALANINE AMINOTRANSFERASE / ALBUMIN / ALKALINE PHOSPHATASE / ASPARTATE AMINOTRANSFERASE / BLOOD UREA NITROGEN / CARBON DIOXIDE / CHLORIDE / CHOLESTEROL / CREATINE PHOSPHOKINASE / CREATININE / GLUCOSE / LACTATE DEHYDROGENASE / LIPASE / PHOSPHORUS / POTASSIUM / SODIUM / TOTAL BILIRUBIN / TOTAL PROTEIN / URIC ACID: tissue Plasma

## OCCNCCO [DIETHANOLAMINE]
72 h, time 3 day
  BASOPHIL: 0.67%
  EOSINOPHIL: 0.37%
  ERYTHROCYTE COUNT: 6.14 x10E6/uL
  HEMATOCRIT: 41.37%
  HEMOGLOBIN: 13.23 G/DL
  LEUKOCYTE COUNT: 8.17 x10E3/uL
  LYMPHOCYTE: 87.67%
  MEAN CORPUSCULAR HEMOGLOBIN: 21.6 pg
  MEAN CORPUSCULAR HEMOGLOBIN CONCENTRATION: 32.1 G/DL
  MEAN CORPUSCULAR VOLUME: 67.4 fL
  MONOCYTE: 2.03%
  NEUTROPHIL: 6.8%
  PLATELET COUNT: 1227 x10E3/uL
  ALANINE AMINOTRANSFERASE: 45.67 u/L
  ALBUMIN: 4.33 G/DL
  ALKALINE PHOSPHATASE: 468 u/L
  ASPARTATE AMINOTRANSFERASE: 125.67 u/L
  BLOOD UREA NITROGEN: 18 mg/dL
  CARBON DIOXIDE: 24.33 mmol/L
  CHLORIDE: 111 MEQ/L
  CHOLESTEROL: 75 mg/dL
  CREATINE PHOSPHOKINASE: 164.33 u/L
  CREATININE: 0.5 mg/dL
  GLUCOSE: 181.67 mg/dL
  LACTATE DEHYDROGENASE: 102.67 u/L
  LIPASE: 21.33 u/L
  PHOSPHORUS: 13.47 mg/dL
  POTASSIUM: 6.33 MEQ/L
  SODIUM: 154.33 MEQ/L
  TOTAL BILIRUBIN: 0.3 mg/dL
  TOTAL PROTEIN: 6.5 G/DL
  URIC ACID: 2.07 mg/dL
120 h, time 5 day
  BASOPHIL: 0.47%
  EOSINOPHIL: 0.37%
  ERYTHROCYTE COUNT: 6.72 x10E6/uL
  HEMATOCRIT: 42.63%
  HEMOGLOBIN: 13.57 G/DL
  LEUKOCYTE COUNT: 7.2 x10E3/uL
  LYMPHOCYTE: 85.43%
  MEAN CORPUSCULAR HEMOGLOBIN: 20.17 pg
  MEAN CORPUSCULAR HEMOGLOBIN CONCENTRATION: 31.77 G/DL
  MEAN CORPUSCULAR VOLUME: 63.43 fL
  MONOCYTE: 2.37%
  NEUTROPHIL: 9.9%
  PLATELET COUNT: 1342 x10E3/uL
  ALANINE AMINOTRANSFERASE: 54.33 u/L
  ALBUMIN: 4.7 G/DL
  ALKALINE PHOSPHATASE: 407 u/L
  ASPARTATE AMINOTRANSFERASE: 196.33 u/L
  BLOOD UREA NITROGEN: 18.33 mg/dL
  CARBON DIOXIDE: 26 mmol/L
  CHLORIDE: 109.33 MEQ/L
  CHOLESTEROL: 82.67 mg/dL
  CREATINE PHOSPHOKINASE: 320.67 u/L
  CREATININE: 0.33 mg/dL
  GLUCOSE: 164.33 mg/dL
  LACTATE DEHYDROGENASE: 81.33 u/L
  LIPASE: 24.67 u/L
  PHOSPHORUS: 12.87 mg/dL
  POTASSIUM: 5.67 MEQ/L
  SODIUM: 152.67 MEQ/L
  TOTAL BILIRUBIN: 0.4 mg/dL
  TOTAL PROTEIN: 7.07 G/DL
  URIC ACID: 2.27 mg/dL
[…], time 14 day
  BASOPHIL: 1.68%
  EOSINOPHIL: 0.28%
  ERYTHROCYTE COUNT: 6.33 x10E6/uL
  HEMATOCRIT: 37.84%
  HEMOGLOBIN: 12.58 G/DL
  LEUKOCYTE COUNT: 17.16 x10E3/uL
  LYMPHOCYTE: 79.3%
  MEAN CORPUSCULAR HEMOGLOBIN: 19.88 pg
  MEAN CORPUSCULAR HEMOGLOBIN CONCENTRATION: 33.26 G/DL
  MEAN CORPUSCULAR VOLUME: 59.7 fL
  MONOCYTE: 1.7%
  NEUTROPHIL: 15.34%
  PLATELET COUNT: 590 x10E3/uL
  ALANINE AMINOTRANSFERASE: 40.2 u/L
  ALBUMIN: 4.34 G/DL
  ALKALINE PHOSPHATASE: 449 u/L
  ASPARTATE AMINOTRANSFERASE: 305.8 u/L
  BLOOD UREA NITROGEN: 32.2 mg/dL
  CARBON DIOXIDE: 27.6 mmol/L
  CHLORIDE: 106 MEQ/L
  CHOLESTEROL: 46.6 mg/dL
  CREATINE PHOSPHOKINASE: 123.4 u/L
  CREATININE: 0.56 mg/dL
  GLUCOSE: 162 mg/dL
  LACTATE DEHYDROGENASE: 58 u/L
  LIPASE: 19 u/L
  PHOSPHORUS: 12.6 mg/dL
  POTASSIUM: 5.54 MEQ/L
  SODIUM: 151 MEQ/L
  TOTAL BILIRUBIN: 0.34 mg/dL
  TOTAL PROTEIN: 6.32 G/DL
  URIC ACID: 0.68 mg/dL
